Reference: patent publication US20190093170A1, “USE OF TRANSLATIONAL PROFILING TO IDENTIFY TARGET MOLECULES FOR THERAPEUTIC TREATMENT” (THE REGENTS OF THE UNIVERSITY OF CALIFORNIA, priority 2013, published 2019)

System: PC3 human prostate cancer cells
Assay: Ribosome profiling: translational efficiency (ribosome footprint vs RNA-seq read density);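 further: Per-gene footprint-to-mRNA density ratio averaged per codon over the coding sequence, scaled so the median gene equals 1.0 after excluding regulated genes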
Assay type: cell-based
Conditions: for PP242 TrlEff: 3-hour treatment with PP242 (2.5 μM) in PC3 cells
Description: Given the critical role for mTOR in prostate cancer, PC3 human prostate cancer cells, in which mTOR is constitutively hyperactivated, were used to delineate translationally controlled gene expression networks upon complete or partial mTOR inhibition. Ribosome profiling was optimized to assess quantitatively ribosome occupancy genome-wide in cancer cells.
Cells were subsequently treated with cycloheximide (100 μg ml^−1; Sigma) and detergent lysis was performed in the dish. The lysate was treated with DNase and clarified, and a sample was taken for RNA-seq analysis. Lysates were subjected to ribosome footprinting by nuclease treatment. Ribosome-protected fragments were purified, and deep sequencing libraries were generated from these fragments, as well as from poly(A) mRNA purified from non-nuclease-treated lysates. These libraries were analyzed by sequencing on an Illumina GAII.
Ribosome footprint and RNA-seq sequencing reads were aligned against a library of transcripts from the UCSC Known Genes database GRCh37/hg19. The first 25 nucleotides of each read were aligned using Bowtie and this initial alignment was then extended to encompass the full fragment-derived portion of the sequencing read while excluding the linker sequence. Read density profiles were then constructed for the canonical transcript of each gene, using only reads with 0 or 1 total mismatches between the read sequence and the reference sequence, comprised of the transcript fragment followed by the linker sequence. Footprint reads were assigned to an A site nucleotide at position +15 to +17 of the alignment, based on the total fragment length; mRNA reads were assigned to the first nucleotide of the alignment. The average read density per codon was then computed for the coding sequence of each transcript, excluding the first 15 and last 5 codons, which can display atypical ribosome accumulation.
Average read density was used as a measure of mRNA abundance (RNA-seq reads) and of protein synthesis (ribosome profiling reads). For most analyses, genes were filtered to require at least 256 reads in the relevant RNA-seq samples. Translational efficiency was computed as the ratio of ribosome footprint read density to RNA-seq read density, scaled to normalize the translational efficiency of the median gene to 1.0 after excluding regulated genes (log 2 fold-change+1.5 after normalizing for the all-gene median). Changes in protein synthesis, mRNA abundance and translational efficiency were similarly computed as the ratio of read densities between different samples, normalized to give the median gene a ratio of 1.0. This normalization corrects for differences in the absolute number of sequencing reads obtained for different libraries.

Compound: CC(C)n1nc(-c2cc3cc(O)ccc3[nH]2)c2c(N)ncnc21 [PP242]
- PP242 TrlEff (gene ACD): −1.02
- TrlEff (gene ACTG1): −1.40
- TrlEff (gene AGRN): −1.29
- TrlEff (gene ALKBH7): −1.27
- TrlEff (gene AP2A1): −1.32
- TrlEff (gene ARD1A): −1.05
- TrlEff (gene ATP5G2): −1.01
- PP242 TrlEff (gene C17orf28): −0.20
- TrlEff (gene C21orf66): −1.03
- PP242 TrlEff (gene CCNA1): 0.66
- TrlEff (gene CCNI): −1.33
- TrlEff (gene CD44): −1.29
- TrlEff (gene CIRBP): −1.08
- TrlEff (gene CLPTM1): −1.13
- TrlEff (gene COL6A2): −1.29
- TrlEff (gene CRTAP): −2.50
- PP242 TrlEff (gene DDX51): −0.51
- PP242 TrlEff (gene DGCR2): 0.02
- TrlEff (gene ECSIT): −1.06
- PP242 TrlEff (gene EEF1A1): −3.53
- TrlEff (gene EEF1A2): −1.94
- TrlEff (gene EEF1D): −2.37
- TrlEff (gene EEF1G): −2.26
- TrlEff (gene EEF2): −3.60
- TrlEff (gene EIF3H): −1.54
- TrlEff (gene EIF3L): −1.47
- TrlEff (gene EIF4B): −2.27
- TrlEff (gene EVPL): −0.79
- TrlEff (gene FAM83H): −1.11
- TrlEff (gene FAM128B): −1.47
- TrlEff (gene FASN): −1.42
- TrlEff (gene GLTSCR2): −2.12
- TrlEff (gene GNB2L1): −2.35
- PP242 TrlEff (gene GTPBP3): −0.83
- TrlEff (gene HNRNPA1): −2.12
- TrlEff (gene HSPA8): −2.25
- TrlEff (gene IMPDH2): −1.33
- TrlEff (gene LAMA5): −0.94
- TrlEff (gene LMF2): −1.36
- PP242 TrlEff (gene MAPK6): −0.29
- PP242 TrlEff (gene MAPKAPK2): 0.92
- TrlEff (gene MTA1): −1.09
- TrlEff (gene NCLN): −0.76
- PP242 TrlEff (gene NFATC21P): 0.35
- PP242 TrlEff (gene NR2F1): −0.09
- TrlEff (gene PABPC1): −2.09
- TrlEff (gene PABPC4): −1.98
- TrlEff (gene PACS1): −1.09
- TrlEff (gene PFDN5): −1.38
- TrlEff (gene PGLS): −1.11
- TrlEff (gene PGM1): −1.35
- TrlEff (gene PNKP): −0.79
- PP242 TrlEff (gene PRKD3): 0.68
- TrlEff (gene PTGES2): −0.65
- TrlEff (gene RABGGTB): −1.46
- PP242 TrlEff (gene RBPJ): −0.03
- TrlEff (gene RPL3): −2.44
- TrlEff (gene RPL4): −1.50
- TrlEff (gene RPL7): −2.02
- TrlEff (gene RPL7A): −2.30
- TrlEff (gene RPL9): −1.59
- TrlEff (gene RPL10): −2.46
- TrlEff (gene RPL10A): −2.16
- TrlEff (gene RPL11): −2.31
- TrlEff (gene RPL12): −2.95
- TrlEff (gene RPL13): −1.56
- TrlEff (gene RPL13A): −3.10
- TrlEff (gene RPL15): −1.20
- TrlEff (gene RPL18A): −2.63
- TrlEff (gene RPL19): −1.35
- TrlEff (gene RPL21): −2.45
- TrlEff (gene RPL22): −1.64
- TrlEff (gene RPL24): −1.41
- TrlEff (gene RPL26): −2.00
- TrlEff (gene RPL27): −1.23
- TrlEff (gene RPL27A): −2.53
- TrlEff (gene RPL28): −2.54
- PP242 TrlEff (gene RPL28): −3.48
- TrlEff (gene RPL31): −2.10
- TrlEff (gene RPL32): −2.33
- TrlEff (gene RPL34): −2.63
- TrlEff (gene RPL36A): −1.98
- TrlEff (gene RPL37A): −2.38
- TrlEff (gene RPL39): −2.41
- PP242 TrlEff (gene RPL39): −2.53
- TrlEff (gene RPL41): −1.28
- TrlEff (gene RPLP0): −1.61
- TrlEff (gene RPLP1): −2.06
- TrlEff (gene RPLP2): −2.10
- TrlEff (gene RPS2): −2.25
- TrlEff (gene RPS3): −2.16
- TrlEff (gene RPS3A): −2.17
- TrlEff (gene RPS4X): −2.06
- TrlEff (gene RPS5): −2.25
- TrlEff (gene RPS7): −1151
- TrlEff (gene RPS9): −2.27
- TrlEff (gene RPS12): −3.00
- TrlEff (gene RPS13): −1.54
- TrlEff (gene RPS14): −1.50
- TrlEff (gene RPS15): −1.19
- TrlEff (gene RPS15A): −2.31
- TrlEff (gene RPS19): −2.34
- TrlEff (gene RPS20): −2.46
- PP242 TrlEff (gene RPS20): −2.78
- TrlEff (gene RPS21): −2.09
- TrlEff (gene RPS25): −2.13
- TrlEff (gene RPS27): −2.71
- PP242 TrlEff (gene RPS27): −3.35
- TrlEff (gene RPS27A): −1.61
- TrlEff (gene RPS28): −2.67
- PP242 TrlEff (gene SDCCAG10): 0.23
- TrlEff (gene SLC19A1): −1.07
- TrlEff (gene TKT): −1.58
- TrlEff (gene TPT1): −1.94
- TrlEff (gene TSC2): −1.09
- TrlEff (gene UBA52): −1.62
- PP242 TrlEff (gene UBTD2): 0.27
- PP242 TrlEff (gene UCHL5): 0.40
- PP242 TrlEff (gene VHL): 0.52
- TrlEff (gene VIM): −2.38
- TrlEff (gene YB1): −2.30
